Drawing on patent US11234961B2, “Pamoate salt of monoamine anti-Parkinson's agents, method of preparation and use thereof” (priority 2017, dated 2022), this text covers crystalline form conversion for 2 substances.

Read-outs that look alike come from different tables or passages of the source.

As to Pramipexole Pamoate [Example 8], the crystalline form conversion result (upon standing at room temperature after 7 days) is “started converting into the crystalline form depicted in Example 7”.

Pramipexole Pamoate [Example 9]: the crystalline form conversion result (placed in the dry box at room temperature) is listed as “converting into amorphous state”.
